A word on the IC50: it is the midpoint of a concentration-inhibition curve. The low end stands for inhibition by little substance, the high end for a need for much substance.

SMILES strings stand for the structures.

We go through 35 compounds from ChEMBL document CHEMBL1137288, “Antiprotozoal activities of new bis-chlorophenyl derivatives of bicyclic octanes and aza-nonanes” (Bioorg Med Chem Lett, 2006).

For assay [1], the system named is Trypanosoma brucei rhodesiense. Nature of the assay: Antiprotozoal activity against Trypanosoma brucei rhodesiense STIB900. The class given is functional, organism-based.
Assay [2] has as its system Plasmodium falciparum. As to the kind of experiment: Antiprotozoal activity against chloroquine-, pyrimethamine-resistant Plasmodium falciparum K1. Type of assay: functional, organism-based.
Assay [3] concerns L6. Nature of the assay: Cytotoxicity against L6 cells. Type of assay: cell-based. The conditions noted are these: Rattus norvegicus.
Assay [4] is described as follows: Selectivity index, IC50 for L6 cells/IC50 for Plasmodium falciparum K1. The class given is functional.
Assay [5] in a line: Selectivity index, IC50 for L6 cells/ IC50 for Trypanosoma brucei rhodesience. The class given is functional.
Assay [6] has as its system Trypanosoma brucei brucei. As to the kind of experiment: Survival of NMRI mouse infected with Trypanosoma brucei brucei at 0.5 mg/kg, ip. The note with it: route intraperitoneal. The class given is functional.
For assay [7], the system named is Trypanosoma brucei brucei. As to the kind of experiment: Survival of NMRI mouse infected with Trypanosoma brucei brucei at 50 mg/kg, ip. Type of assay: functional. The conditions noted are these: route intraperitoneal.

In the case of `COc1ccc(C2CC3(N4CCCCC4)CC(=O)C2C(c2ccc(OC)cc2)C3)cc1` (centres undefined), the figures for the half-inhibitory concentration (IC50) in assay [1] and in assay [2] were 10 µM and 4360 nM, respectively.

Consider `COc1ccc(C2CC3(N4CCCC4)CC(O)C2C(c2ccc(OC)cc2)C3)cc1` (centres undefined), for which the IC50 in assay [3] came out at 17.9 µM; in assay [1], 7.61 µM; in assay [2] it was 2720 nM. Besides, the “Ratio IC50” value in assay [4] is given as 6.58; in assay [5] it was 2.35.

Take `c1ccc(C2CC3(N4CCCCC4)CCNC2C(c2ccccc2)C3)cc1` (centres undefined): the “Ratio IC50” value in assay [4] came to 140.22; in assay [5] it was 13.66.

For `COc1ccc(C2CC3(N(C)C)CC(=O)C2C(c2ccc(OC)cc2)C3)cc1` (centres undefined), the 50% inhibitory concentration (IC50) stood at 52.4 µM in assay [3], 5.01 µM in assay [1] and 5430 nM in assay [2]. In addition, the “Ratio IC50” value in assay [4] amounted to 9.66; in assay [5], 10.47.

In the case of `O=C1CC2(N3CCCCC3)CC(c3ccccc3)C1C(c1ccccc1)C2` (centres undefined), the IC50 came to 46.9 µM in assay [3], 8.12 µM in assay [1] and 3950 nM in assay [2]. The results for the “Ratio IC50” value in assay [4] and in assay [5] were 11.88 and 5.78, respectively.

In assay [6], `Nc1nc(N)nc(Nc2ccc([As]3SCC(CO)S3)cc2)n1` (centres undefined) [MELARSOPROL] came in with a Mean survival days of 42.5 days. Besides, in assay [5], the “Ratio IC50” value came out at 1995.

In the case of `CN(C)C12C/C(=N\O)C(C(c3ccc(Cl)cc3)C1)C(c1ccc(Cl)cc1)C2` (centres undefined), the 50% inhibitory concentration (IC50) in assay [3] stood at 7.82 µM; in assay [1], 1.5 µM; in assay [2], 1000 nM. Further, the figures for the “Ratio IC50” value in assay [4] and in assay [5] were 7.82 and 5.21, respectively.

`OC(c1cc(C(F)(F)F)nc2c(C(F)(F)F)cccc12)C1CCCCN1` (centres undefined) [MEFLOQUINE]: the IC50 in assay [3] was 11.4 µM.

For the compound `CN(C)C12CC(O)C(C(c3ccccc3)C1)C(c1ccccc1)C2` (centres undefined), the half-maximal inhibitory concentration (IC50) in assay [3] was 132 µM; in assay [1] it was 2.95 µM; in assay [2] it was above 15600 nM. Moreover, the “Ratio IC50” value in assay [4] is 8.52; in assay [5], 44.91.

As for `C[C@@H]1CC[C@H]2[C@@H](C)C(=O)O[C@@H]3O[C@@]4(C)CC[C@@H]1[C@]32OO4` [ARTEMISININ], the “Ratio IC50” value in assay [4] worked out at 70390. The same compound came in with an IC50 in assay [2] of 6.4 nM.

As to `O=C1CC2(N3CCCCC3)CC(c3ccccc3)C(N1)C(c1ccccc1)C2` (centres undefined), the IC50 in assay [3] was 234 µM; in assay [1], 36.6 µM; in assay [2], 13000 nM. The “Ratio IC50” value stood at 17.97 in assay [4] and 6.38 in assay [5].

`CN(C)C12CCNC(C(c3ccc(Cl)cc3)C1)C(c1ccc(Cl)cc1)C2` (centres undefined): the results for the IC50 in assay [3], in assay [1] and in assay [2] were 8.74 µM, 0.061 µM and 410 nM, respectively. Besides, the “Ratio IC50” value in assay [4] worked out at 21.32; in assay [5], 143.3. Also, the Mean survival days in assay [7] turned out to be 9 days.

For the compound `COc1ccc(C2CC3(N4CCCC4)CC(=O)C2C(c2ccc(OC)cc2)C3)cc1` (centres undefined), the IC50 in assay [3] stood at 41.9 µM; in assay [1] it was 3.7 µM; in assay [2], 3370 nM. Besides, the “Ratio IC50” value in assay [4] is recorded as 12.44; in assay [5], 11.34.

With `CN(C)C12CC(O)C(C(c3ccc(Cl)cc3)C1)C(c1ccc(Cl)cc1)C2` (centres undefined), the half-maximal inhibitory concentration (IC50) in assay [3] was found to be 8.77 µM; in assay [1], 0.32 µM; in assay [2], 980 nM. Further, the “Ratio IC50” value came to 8.95 in assay [4] and 27.41 in assay [5].

`Clc1ccc(C2CC3(N4CCCCC4)CCNC2C(c2ccc(Cl)cc2)C3)cc1` (centres undefined): the concentration for half-maximal inhibition (IC50) in assay [3] was 8.1 µM; in assay [1], 0.065 µM; in assay [2], 460 nM. The “Ratio IC50” value is 17.61 in assay [4] and 124.6 in assay [5]. This compound also registered a Mean survival days in assay [7] of 10.25 days.

For `O/N=C1/CC2(N3CCCC3)CC(c3ccc(Cl)cc3)C1C(c1ccc(Cl)cc1)C2` (centres undefined), the 50% inhibitory concentration (IC50) was 5.81 µM in assay [3], 1.51 µM in assay [1] and 190 nM in assay [2]. Moreover, the “Ratio IC50” value in assay [4] is on record as 27.26; in assay [5], 3.85.

For `CN(C)C12C/C(=N\O)C(C(c3ccccc3)C1)C(c1ccccc1)C2` (centres undefined), the half-inhibitory concentration (IC50) turned out to be 150 µM in assay [3], 7.67 µM in assay [1] and 1260 nM in assay [2]. Moreover, the “Ratio IC50” value in assay [4] came to 119.4; in assay [5], 19.61.

As to `OC1CC2(N3CCCCC3)CC(c3ccccc3)C1C(c1ccccc1)C2` (centres undefined), the values for the IC50 in assay [3], in assay [1] and in assay [2] were 37.3 µM, 5.34 µM and 840 nM, respectively. Besides, the “Ratio IC50” value in assay [4] is listed as 44.45; in assay [5], 6.99.

On to `Clc1ccc(C2CC3(N4CCCC4)CCNC2C(c2ccc(Cl)cc2)C3)cc1` (centres undefined), for which the results for the IC50 in assay [3], in assay [1] and in assay [2] were 10.1 µM, 0.066 µM and 250 nM, respectively. The entries for the “Ratio IC50” value in assay [4] and in assay [5] were 40.24 and 152.4, respectively. In assay [7], this compound came in with a Mean survival days of 5.75 days.

`CN(C)C12CC(=O)C(C(c3ccccc3)C1)C(c1ccccc1)C2` (centres undefined): the IC50 was 24.6 µM in assay [3], 9.99 µM in assay [1] and above 10600 nM in assay [2]. The “Ratio IC50” value in assay [4] was determined as 2.32; in assay [5] it was 2.46.

In the case of `OC1CC2(N3CCCCC3)CC(c3ccc(Cl)cc3)C1C(c1ccc(Cl)cc1)C2` (centres undefined), the results for the IC50 in assay [3], in assay [1] and in assay [2] were 11.6 µM, 0.44 µM and 370 nM, respectively. The “Ratio IC50” value in assay [4] is 31.32; in assay [5] it was 26.34.

Regarding `OC1CC2(N3CCCC3)CC(c3ccc(Cl)cc3)C1C(c1ccc(Cl)cc1)C2` (centres undefined), the values for the half-inhibitory concentration (IC50) in assay [3], in assay [1] and in assay [2] were 3.59 µM, 0.37 µM and 530 nM, respectively. In addition, the “Ratio IC50” value is on record as 6.77 in assay [4] and 9.7 in assay [5].

As to `O/N=C1\CC2(N3CCCC3)CC(c3ccc(Cl)cc3)C1C(c1ccc(Cl)cc1)C2` (centres undefined), the values for the IC50 in assay [3], in assay [1] and in assay [2] were 12.7 µM, 1.69 µM and 510 nM, respectively. For the same compound, the results for the “Ratio IC50” value in assay [4] and in assay [5] were 24.82 and 7.49, respectively.

Turning to `O/N=C1\CC2(N3CCCC3)CC(c3ccccc3)C1C(c1ccccc1)C2` (centres undefined), the IC50 in assay [3] was found to be 13.5 µM; in assay [1], 1.84 µM; in assay [2], 80 nM. Moreover, the “Ratio IC50” value is listed as 168.1 in assay [4] and 7.31 in assay [5].

With `COc1ccc(C2CC3(N(C)C)CC(O)C2C(c2ccc(OC)cc2)C3)cc1` (centres undefined), the 50% inhibitory concentration (IC50) was 63.4 µM in assay [3], 2.15 µM in assay [1] and 5500 nM in assay [2]. Also, the “Ratio IC50” value in assay [4] is on record as 11.53; in assay [5], 29.5.

In the case of `c1ccc(C2CC3(N4CCCC4)CCNC2C(c2ccccc2)C3)cc1` (centres undefined), the “Ratio IC50” value in assay [4] was found to be 215; in assay [5], 103.8.

As to `O=C1CC2(N3CCCC3)CC(c3ccccc3)C1C(c1ccccc1)C2` (centres undefined), the values for the IC50 in assay [3], in assay [1] and in assay [2] were 26.4 µM, 8.03 µM and 1190 nM, respectively. The figures for the “Ratio IC50” value in assay [4] and in assay [5] were 22.22 and 3.29, respectively.

Regarding `CN(C)C12CC(=O)NC(C(c3ccccc3)C1)C(c1ccccc1)C2` (centres undefined), the results for the concentration for half-maximal inhibition (IC50) in assay [3], in assay [1] and in assay [2] were above 269 µM, 38 µM and 1400 nM, respectively. Also, the “Ratio IC50” value in assay [4] stood at 192.2; in assay [5], 7.09.

As to `COc1ccc(C2CC3(N4CCCCC4)CC(O)C2C(c2ccc(OC)cc2)C3)cc1` (centres undefined), the results for the IC50 in assay [3], in assay [1] and in assay [2] were 44.6 µM, 14.2 µM and 4980 nM, respectively. Also, the “Ratio IC50” value in assay [4] turned out to be 8.95; in assay [5] it was 3.13.

As for `O/N=C1\CC2(N3CCCCC3)CC(c3ccccc3)C1C(c1ccccc1)C2` (centres undefined), the IC50 was 24.2 µM in assay [3], 3.66 µM in assay [1] and 150 nM in assay [2]. For the same compound, the “Ratio IC50” value worked out at 161.1 in assay [4] and 6.6 in assay [5].

On to `Cc1ccc(C(=O)Nc2ccc(S(=O)(=O)O)c3cc(S(=O)(=O)O)cc(S(=O)(=O)O)c23)cc1NC(=O)c1cccc(NC(=O)Nc2cccc(C(=O)Nc3cc(C(=O)Nc4ccc(S(=O)(=O)O)c5cc(S(=O)(=O)O)cc(S(=O)(=O)O)c45)ccc3C)c2)c1` [SURAMIN], for which the values for the half-inhibitory concentration (IC50) in assay [3] and in assay [1] were 4720 µM and 0.0075 µM, respectively. Besides, the “Ratio IC50” value in assay [5] is given as 629933.

On to `CN(C)C12CCNC(C(c3ccccc3)C1)C(c1ccccc1)C2` (centres undefined), for which the “Ratio IC50” value in assay [4] was 388.6; in assay [5], 181.3.

For `O=C1CC2(N3CCCC3)CC(c3ccccc3)C(N1)C(c1ccccc1)C2` (centres undefined), the results for the 50% inhibitory concentration (IC50) in assay [3], in assay [1] and in assay [2] were above 250 µM, 37.9 µM and 8760 nM, respectively. In addition, the “Ratio IC50” value in assay [4] is given as 28.43; in assay [5] it was 6.58.

For `OC1CC2(N3CCCC3)CC(c3ccccc3)C1C(c1ccccc1)C2` (centres undefined), the half-inhibitory concentration (IC50) in assay [3] was 26.8 µM; in assay [1], 4.26 µM; in assay [2], 2390 nM. Further, the “Ratio IC50” value in assay [4] amounted to 11.2; in assay [5], 6.28.

As to `O/N=C1\CC2(N3CCCCC3)CC(c3ccc(Cl)cc3)C1C(c1ccc(Cl)cc1)C2` (centres undefined), the IC50 in assay [3] worked out at 8.75 µM; in assay [1], 3.34 µM; in assay [2], 500 nM. For the same compound, the “Ratio IC50” value in assay [4] was found to be 17.5; in assay [5], 2.62.
